Data: patent US20080242661A1, “Novel compounds useful for the treatment of degenerative & inflammatory diseases” (priority 2006, published 2008)

Target: purified PDE1A enzyme (Homo sapiens, UniProt P54750)
Assay: In vitro PDE1A assay, dose response (Biomol Cyclic Nucleotide Phosphodiesterase Assay Kit, colorimetric)
Assay type: biochemical
Conditions: 100 μM cAMP, 45 min at 37° C., 8 points from 20 μM, duplicate
From the text: For the dose response and further screening, we used the Cyclic Nucleotide Phosphodiesterase Assay Kit from Biomol, a colorimetric, non-radioactive assay. The basis for the assay is the cleavage of cAMP by PDE1A. The 5′AMP is further cleaved into the nucleoside and phosphate by the enzyme 5′-nucleotidase (catnr KI-307). The phosphate released due to enzymatic cleavage is quantified using BIOMOL GREEN™ reagent (catnr AK-111) in a modified Malachite Green assay 1,2. A PDE1A inhibitor will result in a decrease of the signal.
For the enzymatic reaction a mix of 25 μL with purified PDE1A enzyme, 100 μM cAMP, 5′Nucleotidase and the compound is made in a clear 384-plate. The reaction buffer is Tris 20 mM pH 7.4, 4 μg/ml calmodulin, 3 mM MgCl2, 1.5 mM CaCl2, 0.2 mg/mL BSA and 0.001% Brij-35. After an incubation of 45 minutes at 37° C., the reaction is stopped by the addition of 50 μL BIOMOL GREEN™ reagent. After 30 minutes incubation at room temperature, the readout is performed on the Envision (absorption at 615 nm).
All compounds are tested in duplicate starting from 20 μM followed by a ⅓ serial dilution, 8 points (20 μM-6.67 μM-2.22 μM-740 nM-247 nM-82 nM-27 nM-9 nM) in a final concentration of 1% DMSO. As the positive dose response control compound Vardenafil is used. For the calculation of z′ and PIN values 10 μM Vardenafil is used as positive control (100% inhibition) and 1% DMSO as negative control (0% inhibition).
The following compounds have been or can be prepared according to the synthetic methods described above. For the purpose of Table 2 below, activity of each compound, which can be determined using the PDE1A assay method described in above, is expressed as follows: […]

| SMILES | IC50 |
| --- | --- |
| CCCc1nn(C)c2c(=O)[nH]c(N3CCCN(Cc4c(F)cccc4Cl)CC3)nc12 [Example 1, 5-(4-(2-chloro-6-fluorobenzyl)-1,4-diazepan-1-yl)-1-methyl-3-propyl-1H-pyrazolo[4,3-d]pyrimidin-7(6H)-one] | > 500 nM |
| CCCc1nn(C)c2c(=O)[nH]c(N(C)Cc3ccc(Cl)c(Cl)c3)nc12 [Example 2, 5-((3,4-dichlorobenzyl)(methyl)amino)-1-methyl-3-propyl-1H-pyrazolo[4,3-d]pyrimidin-7(6H)-one] | < 100 nM |
| CCCc1nn(C)c2c(=O)[nH]c(N(C)Cc3ccc(N4CCCCC4)cc3)nc12 [Example 3, 1-methyl-5-(methyl(4-(piperidin-1-yl)benzyl)amino)-3-propyl-1H-pyrazolo[4,3-d]pyrimidin-7(6H)-one] | 101 to 500 nM |
| CCCc1nn(C)c2c(=O)[nH]c(N(CCC)CCC)nc12 [Example 4, 5-(dipropylamino)-1-methyl-3-propyl-1H-pyrazolo[4,3-d]pyrimidin-7(6H)-one] | < 100 nM |
| CCCc1nn(C)c2c(=O)[nH]c(N(C)Cc3cccc(C(F)(F)F)c3)nc12 [Example 5, 1-methyl-5-(methyl(3-(trifluoromethyl)benzyl)amino)-3-propyl-1H-pyrazolo[4,3-d]pyrimidin-7(6H)-one] | 101 to 500 nM |
| CCCc1nn(C)c2c(=O)[nH]c(NCc3ccc(N4CCN(C)CC4)cc3)nc12 [Example 6, 1-methyl-5-(4-(4-methylpiperazin-1-yl)benzylamino)-3-propyl-1H-pyrazolo[4,3-d]pyrimidin-7(6H)-one] | > 500 nM |
| CCCc1nn(C)c2c(=O)[nH]c(Nc3ccc4[nH]ncc4c3)nc12 [Example 7, 5-(1H-indazol-5-ylamino)-1-methyl-3-propyl-1H-pyrazolo[4,3-d]pyrimidin-7(6H)-one] | > 500 nM |
| CCCc1nn(C)c2c(=O)[nH]c(N3CCc4ccccc4C3)nc12 [Example 8, 5-(3,4-dihydroisoquinolin-2(1H)-yl)-1-methyl-3-propyl-1H-pyrazolo[4,3-d]pyrimidin-7(6H)-one] | 101 to 500 nM |
| CCCc1nn(C)c2c(=O)[nH]c(N(C)Cc3ccc(OC)cc3)nc12 [Example 9, 5-((4-methoxybenzyl)(methyl)amino)-1-methyl-3-propyl-1H-pyrazolo[4,3-d]pyrimidin-7(6H)-one] | < 100 nM |
| CCCc1nn(C)c2c(=O)[nH]c(N(C)Cc3cccc(N4CCOCC4)c3)nc12 [Example 10, 1-methyl-5-(methyl(3-morpholinobenzyl)amino)-3-propyl-1H-pyrazolo[4,3-d]pyrimidin-7(6H)-one] | 101 to 500 nM |
| CCCc1nn(C)c2c(=O)[nH]c(NCc3cccc(N4CCCCC4)c3)nc12 [Example 11, 1-methyl-5-(3-(piperidin-1-yl)benzylamino)-3-propyl-1H-pyrazolo[4,3-d]pyrimidin-7(6H)-one] | 101 to 500 nM |
| CCCc1nn(C)c2c(=O)[nH]c(N(C)Cc3cccc(-c4cncnc4)c3)nc12 [Example 12, 1-methyl-5-(methyl(3-(pyrimidin-5-yl)benzyl)amino)-3-propyl-1H-pyrazolo[4,3-d]pyrimidin-7(6H)-one] | 101 to 500 nM |
| CCCc1nn(C)c2c(=O)[nH]c(N(C)Cc3ccc(-c4cncnc4)cc3)nc12 [Example 13, 1-methyl-5-(methyl(4-(pyrimidin-5-yl)benzyl)amino)-3-propyl-1H-pyrazolo[4,3-d]pyrimidin-7(6H)-one] | 101 to 500 nM |
| CCCc1nn(C)c2c(=O)[nH]c(N(C)Cc3cc(C)n(C)n3)nc12 [Example 14, 5-(((1,5-dimethyl-1H-pyrazol-3-yl)methyl)(methyl)amino)-1-methyl-3-propyl-1H-pyrazolo[4,3-d]pyrimidin-7(6H)-one] | 101 to 500 nM |
| CCCc1nn(C)c2c(=O)[nH]c(N(C)Cc3cccc(Cl)c3)nc12 [Example 15, 5-((3-chlorobenzyl)(methyl)amino)-1-methyl-3-propyl-1H-pyrazolo[4,3-d]pyrimidin-7(6H)-one] | 101 to 500 nM |
